Assay [1] has as its target T1, SHP2 (Homo sapiens, UniProt Q06124).
T1 construct: gene PTPN11
T1 sequence (Q06124 1-526): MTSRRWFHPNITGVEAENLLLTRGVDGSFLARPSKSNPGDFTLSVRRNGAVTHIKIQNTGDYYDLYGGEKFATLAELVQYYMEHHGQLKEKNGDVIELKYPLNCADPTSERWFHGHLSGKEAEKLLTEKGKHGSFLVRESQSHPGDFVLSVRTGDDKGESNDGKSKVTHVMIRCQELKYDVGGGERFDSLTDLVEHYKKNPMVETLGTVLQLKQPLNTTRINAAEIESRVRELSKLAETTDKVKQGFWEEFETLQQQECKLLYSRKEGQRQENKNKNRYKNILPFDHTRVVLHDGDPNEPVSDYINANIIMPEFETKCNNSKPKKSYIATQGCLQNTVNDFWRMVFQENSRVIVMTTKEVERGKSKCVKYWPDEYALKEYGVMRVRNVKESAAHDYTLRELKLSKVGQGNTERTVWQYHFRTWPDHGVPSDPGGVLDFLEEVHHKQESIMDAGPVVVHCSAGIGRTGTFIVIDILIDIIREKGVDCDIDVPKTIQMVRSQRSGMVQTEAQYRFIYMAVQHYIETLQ

In assay [2] the target is T1, SHP2. Kind of assay: DiFMUP fluorogenic phosphatase assay at […]. It is filed as biochemical.

The term Km denotes the substrate concentration at which the rate is half of its maximum. Turning to `Cc1cc(=O)oc2c(F)c(OP(=O)(O)O)c(F)cc12` [DiFMUP], in assay [1], the Michaelis-Menten constant (Km) was 70 µM. Consider `CC1(C)CC[C@]2(C(=O)O)CC[C@]3(C)C(=CC[C@@H]4[C@@]5(C)CC[C@H](O)C(C)(C)[C@@H]5CC[C@]43C)[C@@H]2C1` [oleanolic acid], for which the “DiFMUP fluorogenic phosphatase assay at 20 μM” value in assay [2] is “Echinocystic and oleanolic acids selectively inhibited SHP1 and SHP2 over the other PTPs tested”.

The values above are taken from publication PMC7915588, “Polyphyllin D Shows Anticancer Effect through a Selective Inhibition of Src Homology Region 2-Containing Protein Tyrosine Phosphatase-2 (SHP2)” (Molecules, 2021).
